From ChEMBL document CHEMBL1201862, “PubChem BioAssay data set” (2004)
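Grown in 96-well plates, cells were treated for 48 hours with each compound at five concentrations. Insufficient inhibition: endpoint recorded as highest concentration tested. Here, GI50 denotes the concentration required for 50% inhibition of growth.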 Active and inactive are the calls of the source. No stated cut-off is given here; in the data, active = GI50 up to about 1.1 µM and inactive = higher.

Tests used:
Experiment in all cases: inhibition of tumour cell growth, NCI panel, 48 h
CAKI-1 = test system: CAKI-1
HCC 2998 = test system: HCC 2998
HL-60 = test system: HL-60
HOP-62 = test system: HOP-62
IGROV-1 = test system: IGROV-1
NCI-H460 = test system: NCI-H460
OVCAR-3 = test system: OVCAR-3
OVCAR-4 = test system: OVCAR-4
OVCAR-5 = test system: OVCAR-5
SF-295 = test system: SF-295
SK-MEL-5 = test system: SK-MEL-5
SN12C = test system: SN12C
SNB-19 = test system: SNB-19
SR = test system: SR
T47D = test system: T47D
TK-10 = test system: TK-10
UO-31 = test system: UO-31
A498 = test system: A498
Malme-3M = test system: Malme-3M

Measured: GI50

Cc1ccc(S(=O)(=O)NC2C(=O)c3ccccc3C(=O)C2n2ccnc2)cc1 (stereo not given)
inactive: CAKI-1 > 100 µM | HCC 2998 > 100 µM | HL-60 18.6 µM | HOP-62 > 100 µM | IGROV-1 > 100 µM | NCI-H460 > 100 µM | OVCAR-3 42.5 µM | OVCAR-4 30.9 µM | OVCAR-5 > 100 µM | SF-295 > 100 µM | SK-MEL-5 48.5 µM | SN12C 15 µM | SNB-19 > 100 µM | SR 67.8 µM | T47D 17.5 µM | TK-10 > 100 µM | UO-31 > 100 µM

Cc1ccc(S(=O)(=O)NC(=O)NCCc2ccc(O)c(O)c2)cc1
inactive: A498 > 100 µM | CAKI-1 > 100 µM | HCC 2998 > 100 µM | HL-60 56.5 µM | HOP-62 > 100 µM | IGROV-1 > 100 µM | Malme-3M > 100 µM | NCI-H460 > 100 µM | OVCAR-3 > 100 µM | OVCAR-4 > 100 µM | OVCAR-5 > 100 µM | SF-295 > 100 µM | SK-MEL-5 37.2 µM | SNB-19 > 100 µM | SR > 100 µM | TK-10 > 100 µM | UO-31 > 100 µM

CC(=O)O[C@H]1[C@@H]2[C@@H]3[C@@H](C[C@H]1C)[C@@H](C)CO[C@@]1(C)CC/C=C(/C)C[C@@H]2O[C@@H]31
inactive: A498 > 100 µM | CAKI-1 > 100 µM | HCC 2998 56.2 µM | HL-60 > 100 µM | HOP-62 > 100 µM | IGROV-1 > 100 µM | Malme-3M > 100 µM | NCI-H460 > 100 µM | OVCAR-3 > 100 µM | OVCAR-4 > 100 µM | OVCAR-5 > 100 µM | SF-295 > 100 µM | SK-MEL-5 > 100 µM | SN12C > 100 µM | SNB-19 > 100 µM | SR > 100 µM | TK-10 > 100 µM | UO-31 > 100 µM

O=C1NC(Cc2ccc(O)cc2)C(=O)N2CCCC12 (stereo not given)
inactive: A498 > 100 µM | CAKI-1 > 100 µM | HCC 2998 > 100 µM | HL-60 > 100 µM | HOP-62 > 100 µM | IGROV-1 > 100 µM | Malme-3M > 100 µM | NCI-H460 > 100 µM | OVCAR-3 > 100 µM | OVCAR-4 > 100 µM | OVCAR-5 > 100 µM | SF-295 > 100 µM | SK-MEL-5 > 100 µM | SN12C > 100 µM | SNB-19 > 100 µM | SR > 100 µM | TK-10 > 100 µM | UO-31 > 100 µM

N#CC(C#N)=C1NC(=O)C(c2ccccc2)C(=O)N1 (stereo not given)
inactive: A498 > 100 µM | CAKI-1 > 100 µM | HCC 2998 > 100 µM | HL-60 > 100 µM | HOP-62 > 100 µM | IGROV-1 > 100 µM | Malme-3M > 100 µM | NCI-H460 > 100 µM | OVCAR-3 > 100 µM | OVCAR-4 > 100 µM | OVCAR-5 > 100 µM | SF-295 > 100 µM | SK-MEL-5 > 100 µM | SN12C > 100 µM | SNB-19 > 100 µM | SR > 100 µM | TK-10 > 100 µM | UO-31 > 100 µM

CCCCCCCCC[C@@H]1CC(=O)OCC2OC(O[C@H](CCCCCCCCC)CC(=O)OCC3OC(O[C@H](CCCCCCCCC)CC(=O)OCC4OC(O1)C(O)C(O)C4O)C(O)C(O)C3O)C(O)C(O)C2O (stereo not given in full)
inactive: A498 14.5 µM | CAKI-1 3.21 µM | HCC 2998 12 µM | HL-60 14.3 µM | HOP-62 12.3 µM | IGROV-1 14.5 µM | Malme-3M 8.83 µM | NCI-H460 5.13 µM | OVCAR-3 18 µM | OVCAR-4 18.2 µM | OVCAR-5 10.7 µM | SF-295 14.1 µM | SK-MEL-5 12.5 µM | SN12C 13.7 µM | SNB-19 8.89 µM | SR 6.7 µM | TK-10 8.15 µM | UO-31 9.4 µM

CO[C@@H](C(=O)OC1C=CC2(CC1)C(=O)N(C)c1ccccc12)c1ccccc1 (stereo not given in full)
inactive: A498 > 100 µM | CAKI-1 > 100 µM | HCC 2998 > 100 µM | HL-60 20.9 µM | HOP-62 > 100 µM | IGROV-1 > 100 µM | NCI-H460 > 100 µM | OVCAR-3 > 100 µM | OVCAR-4 70.3 µM | OVCAR-5 > 100 µM | SF-295 > 100 µM | SK-MEL-5 34.3 µM | SN12C > 100 µM | SNB-19 > 100 µM | SR 42.1 µM | T47D 44.2 µM | TK-10 > 100 µM | UO-31 > 100 µM

CCCC(=O)N[C@H]1C2C3CC4C5CC(C42)C1(C)C53 (stereo not given in full)
inactive: A498 > 100 µM | CAKI-1 > 100 µM | HCC 2998 > 100 µM | HL-60 > 100 µM | HOP-62 > 100 µM | IGROV-1 > 100 µM | Malme-3M > 100 µM | NCI-H460 > 100 µM | OVCAR-3 > 100 µM | OVCAR-4 > 100 µM | OVCAR-5 > 100 µM | SF-295 > 100 µM | SK-MEL-5 > 100 µM | SN12C > 100 µM | SNB-19 > 100 µM | SR > 100 µM | TK-10 > 100 µM | UO-31 > 100 µM

O=C(OC[C@H]1C[C@H]2C(=O)CCC[C@H]2O1)c1ccccc1
inactive: A498 > 100 µM | CAKI-1 > 100 µM | HL-60 > 100 µM | HOP-62 > 100 µM | IGROV-1 > 100 µM | NCI-H460 > 100 µM | OVCAR-3 > 100 µM | OVCAR-4 > 100 µM | OVCAR-5 > 100 µM | SF-295 > 100 µM | SK-MEL-5 > 100 µM | SN12C > 100 µM | SNB-19 > 100 µM | SR > 100 µM | T47D > 100 µM | TK-10 > 100 µM | UO-31 > 100 µM

COCCOCOC(C)(C)[C@H](CCOC(C)=O)O[Si](c1ccccc1)(c1ccccc1)C(C)(C)C
inactive: A498 20.4 µM | CAKI-1 26.2 µM | HCC 2998 9.1 µM | HL-60 3.98 µM | HOP-62 23.3 µM | IGROV-1 23.6 µM | Malme-3M 16.6 µM | NCI-H460 5.74 µM | OVCAR-3 11 µM | OVCAR-4 15 µM | OVCAR-5 16.8 µM | SF-295 16 µM | SK-MEL-5 10.5 µM | SN12C 5.77 µM | SNB-19 49 µM | SR 4.42 µM | TK-10 22.8 µM | UO-31 13.5 µM

O=C(/C=C/c1ccco1)c1ccc(NCc2nc3ccccc3[nH]2)cc1
inactive: A498 14.4 µM | CAKI-1 17.2 µM | HCC 2998 14.6 µM | HL-60 13 µM | HOP-62 19.1 µM | IGROV-1 18.1 µM | Malme-3M 19 µM | NCI-H460 23.3 µM | OVCAR-3 16.6 µM | OVCAR-4 19.2 µM | OVCAR-5 17.7 µM | SF-295 15.6 µM | SK-MEL-5 14.8 µM | SN12C 17.2 µM | SNB-19 15.6 µM | SR 10.8 µM | TK-10 17.9 µM | UO-31 13.8 µM
